Results on 18 compounds are retold here after US20240190849A1, “AMINOPYRIMIDINE COMPOUNDS AND METHODS OF THEIR USE” (TYRA BIOSCIENCES, INC., priority 2021, published 2024).

The target of assay [1] is T1, FGFR2 (Homo sapiens, UniProt P21802).
T1 construct: made in house; host or cells: E. coli derived from BL21, infected with T7 phage
Briefly: Kinase binding assay (kinase-tagged T7 phage, affinity beads, qPCR readout), FGFR2. The conditions noted are these: FGFR binding data. The essentials: (§1)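 Dissociation constants were measured by bead-capture competition at 0.9% DMSO, room temperature, 1 hour. qPCR of eluted kinase supplied the signal.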

Assay [2] concerns the target T2, FGFR3 (V555M) (Homo sapiens, UniProt P22607, V555M).
T2 construct: made in house; host or cells: E. coli derived from BL21, infected with T7 phage
Briefly: Kinase binding assay (kinase-tagged T7 phage, affinity beads, qPCR readout), FGFR3 (V555M). The settings on record: FGFR binding data. The essentials:
as §1

The test system of assay [3] is SNU-16 (Gastric Carcinoma), FGFR2 amplification. Briefly: Cancer cell viability assay (Cell Titer-Glo), SNU-16. The class given is cell-based. The conditions noted are these: Homo sapiens, SNU-16 cells, 72 hours, read-out: SNU16 FGFR2 (IC50 nM). The source says:
RT112/84, UM-UC-14, SNU-16 and KG-1 Cancer Cell Line Cell Viability Assays
To detect the change of intracellular ATP by Cell Titer-Glo@ and to evaluate the inhibitory effect of the compounds on cancer cell lines by determining the in vitro IC50 value of the compounds.
Cell Titer-Glo@ 2.0 Luminescent cell viability assay reagent was purchased from Promega (Madison, WI). RT112/84, SNU-16, and KG-1 cell lines were purchased from American Type Culture Collection (Manassas, VA). UM-UC-14 cell line was purchased from Sigma (St. Louis, MO). RT112/84, UM-UC-14, SNU-16, and KG-1 cells were cultured in RPMI1640 media supplemented with 10% fetal bovine serum. Cultures were maintained at 37° C. in a humidified atmosphere of 5% CO2 and 95% air.
Cell Viability Assay Procedure: Cells were plated in 96-well clear bottom/white plates (Corning #3903) at 10,000 cells/well in 100 μl of media, incubated overnight. The next day, test compound DMSO stock solutions were made at 10 mM and 2 μM final concentration. Compounds were then added to cells in a 9-dose, […] dilution series starting at 30 μM with an HP 300e Digital Dispenser (each dose was applied in triplicate). DMSO was backfilled to each well up to 301 nL total volume of test compound+DMSO, and a total of 301 nL DMSO was added to a control/no test compound well in triplicate. The cells in cell culture plates were incubated with the compounds at 37° C. and 5% CO2 for 72 hours. Then 50 μl of Cell Titer Glo 2.0 reagent was added to each well of the cell culture plates. The contents were covered from light and mixed on an orbital shaker at room temperature for 10 min. Luminescence was recorded by a Synergy H1 Microplate Reader (Biotek, Winooski, VT). Cells were assessed as a percentage of DMSO only treated control cells. Curves were plotted and IC50 values were calculated using the GraphPad Prism 8 program based on a sigmoidal dose-response equation (4 parameter).

Assay [4] concerns the target T3, FGFR1 (Homo sapiens, UniProt P11362).
T3 construct: made in house; host or cells: E. coli derived from BL21, infected with T7 phage
Briefly: Kinase binding assay (kinase-tagged T7 phage, affinity beads, qPCR readout), FGFR1. The settings on record: FGFR binding data. The essentials: as §1

For assay [5], the target named is T4, FGFR3 (Homo sapiens, UniProt P22607).
T4 construct: made in house; host or cells: E. coli derived from BL21, infected with T7 phage
T4 sequence (P22607 23-806): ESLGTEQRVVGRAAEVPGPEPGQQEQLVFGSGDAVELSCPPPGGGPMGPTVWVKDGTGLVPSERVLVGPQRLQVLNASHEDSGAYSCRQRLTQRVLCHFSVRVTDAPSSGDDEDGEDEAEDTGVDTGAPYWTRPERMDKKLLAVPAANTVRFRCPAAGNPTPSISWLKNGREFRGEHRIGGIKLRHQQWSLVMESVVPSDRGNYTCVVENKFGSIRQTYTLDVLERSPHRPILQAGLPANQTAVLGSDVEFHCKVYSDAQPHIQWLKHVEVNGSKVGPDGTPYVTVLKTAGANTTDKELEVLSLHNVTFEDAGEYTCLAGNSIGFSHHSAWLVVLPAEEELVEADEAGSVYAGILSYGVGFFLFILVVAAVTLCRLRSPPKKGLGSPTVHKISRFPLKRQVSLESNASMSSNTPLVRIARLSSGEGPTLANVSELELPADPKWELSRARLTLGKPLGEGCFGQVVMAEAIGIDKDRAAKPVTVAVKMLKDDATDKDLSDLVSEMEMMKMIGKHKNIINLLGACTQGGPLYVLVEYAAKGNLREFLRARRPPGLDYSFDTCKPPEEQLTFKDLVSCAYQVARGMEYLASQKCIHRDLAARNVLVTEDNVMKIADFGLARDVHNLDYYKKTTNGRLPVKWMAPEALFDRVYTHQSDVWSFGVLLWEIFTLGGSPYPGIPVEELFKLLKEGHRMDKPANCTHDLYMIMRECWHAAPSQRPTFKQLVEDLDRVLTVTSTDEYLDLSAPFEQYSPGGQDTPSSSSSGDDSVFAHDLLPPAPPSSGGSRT
Briefly: Kinase binding assay (kinase-tagged T7 phage, affinity beads, qPCR readout), FGFR3. The conditions noted are these: FGFR binding data. The essentials:
as §1

T3 sequence (P11362 22-822): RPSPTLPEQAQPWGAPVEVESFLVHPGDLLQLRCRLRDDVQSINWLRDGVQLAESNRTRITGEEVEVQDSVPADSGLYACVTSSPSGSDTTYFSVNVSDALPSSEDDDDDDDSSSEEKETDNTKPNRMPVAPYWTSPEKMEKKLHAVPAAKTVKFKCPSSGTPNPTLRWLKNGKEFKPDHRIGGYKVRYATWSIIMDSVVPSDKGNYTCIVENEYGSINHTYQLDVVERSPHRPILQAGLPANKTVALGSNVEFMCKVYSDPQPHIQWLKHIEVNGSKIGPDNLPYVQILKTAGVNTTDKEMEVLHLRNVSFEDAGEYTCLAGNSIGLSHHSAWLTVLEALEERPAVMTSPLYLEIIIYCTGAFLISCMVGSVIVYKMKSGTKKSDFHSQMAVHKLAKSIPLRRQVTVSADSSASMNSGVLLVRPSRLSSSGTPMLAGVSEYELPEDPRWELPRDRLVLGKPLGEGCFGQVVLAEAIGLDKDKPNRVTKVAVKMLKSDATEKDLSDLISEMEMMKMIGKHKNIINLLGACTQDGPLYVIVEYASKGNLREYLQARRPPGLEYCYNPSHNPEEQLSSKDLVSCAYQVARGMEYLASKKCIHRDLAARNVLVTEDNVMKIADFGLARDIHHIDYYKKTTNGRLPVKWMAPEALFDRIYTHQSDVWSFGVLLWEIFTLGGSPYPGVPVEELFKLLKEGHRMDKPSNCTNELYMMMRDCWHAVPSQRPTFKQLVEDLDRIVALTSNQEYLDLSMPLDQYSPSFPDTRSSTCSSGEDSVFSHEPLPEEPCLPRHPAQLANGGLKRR
T1 sequence (P21802 22-821): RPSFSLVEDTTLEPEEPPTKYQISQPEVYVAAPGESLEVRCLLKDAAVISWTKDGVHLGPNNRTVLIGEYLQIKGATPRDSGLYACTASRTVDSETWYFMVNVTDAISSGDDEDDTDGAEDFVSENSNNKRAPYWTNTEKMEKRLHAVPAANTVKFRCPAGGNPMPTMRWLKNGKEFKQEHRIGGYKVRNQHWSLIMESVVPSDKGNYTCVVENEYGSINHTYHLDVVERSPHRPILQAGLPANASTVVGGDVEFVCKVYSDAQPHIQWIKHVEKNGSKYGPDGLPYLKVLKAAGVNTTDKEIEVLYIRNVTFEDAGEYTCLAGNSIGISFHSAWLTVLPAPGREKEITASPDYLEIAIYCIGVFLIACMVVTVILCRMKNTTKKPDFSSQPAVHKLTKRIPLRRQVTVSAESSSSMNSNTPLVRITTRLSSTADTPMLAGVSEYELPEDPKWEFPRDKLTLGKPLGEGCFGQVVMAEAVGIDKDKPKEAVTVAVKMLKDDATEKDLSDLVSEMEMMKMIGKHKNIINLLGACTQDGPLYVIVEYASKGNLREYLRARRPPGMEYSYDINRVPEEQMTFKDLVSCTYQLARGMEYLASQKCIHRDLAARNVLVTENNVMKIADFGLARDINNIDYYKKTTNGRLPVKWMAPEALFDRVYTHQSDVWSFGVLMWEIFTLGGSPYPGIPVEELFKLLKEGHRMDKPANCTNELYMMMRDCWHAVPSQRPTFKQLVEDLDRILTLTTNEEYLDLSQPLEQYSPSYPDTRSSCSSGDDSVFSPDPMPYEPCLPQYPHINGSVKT
T2 sequence (P22607 23-806 V555M): as the sequence (P22607 23-806) above, with V533M counted along it

Regarding `C=CC(=O)Nc1ccc2c(-c3nc(Nc4cnn(CCO)c4)ncc3Cl)cn(C)c2c1` [Example 127, N-[3-[5-chloro-2-[[1-(2-hydroxyethyl)pyrazol-4-yl]amino]pyrimidin-4-yl]-1-methyl-indol-6-yl]prop-2-enamide], the Kd in assay [1], in assay [2], in assay [4] and in assay [5] was 0.1 to 100 nM each time. In addition, the IC50 in assay [3] is 0.1 to 100 nM.

`C=CC(=O)Nc1ccc2c(-c3nc(Nc4cnn(CCO)c4)ncc3F)cn(C)c2c1` [Example 128, N-[3-[5-fluoro-2-[[1-(2-hydroxyethyl)pyrazol-4-yl]amino]pyrimidin-4-yl]-1-methyl-indol-6-yl]prop-2-enamide]: the Kd in assay [1], in assay [2], in assay [4] and in assay [5] was 0.1 to 100 nM in each case. Further, in assay [3], the IC50 was in the range of 0.1 to 100 nM.

For the compound `Cc1cn(-c2nc(Nc3cnn(CCO)c3)ncc2F)c2ccc(NC(=O)/C=C/CN(C)C)cc12` [Example 144, (E)-4-(dimethylamino)-N-[1-[5-fluoro-2-[[1-(2-hydroxyethyl)pyrazol-4-yl]amino]pyrimidin-4-yl]-3-methyl-indol-5-yl]but-2-enamide], the Kd in assay [1], in assay [2], in assay [4] and in assay [5] was 0.1 to 100 nM throughout. Further, in assay [3], the IC50 fell in the range of 0.1 to 100 nM.

On to `C=CC(=O)Nc1ccc2c(c1)c(C)cn2-c1nc(Nc2cnn(C)c2C)ncc1C` [Example 147, N-[1-[2-[(1,5-dimethylpyrazol-4-yl)amino]-5-methyl-pyrimidin-4-yl]-3-methyl-indol-5-yl]prop-2-enamide], for which the Kd in assay [1], in assay [2], in assay [4] and in assay [5] was 0.1 to 100 nM throughout. Also, the IC50 in assay [3] was 0.1 to 100 nM.

With `C=CC(=O)Nc1ccc2c(c1)c(C)cn2-c1nc(Nc2cnsc2)ncc1F` [Example 148, N-[1-[5-fluoro-2-(isothiazol-4-ylamino)pyrimidin-4-yl]-3-methyl-indol-5-yl]prop-2-enamide], the Kd in assay [1], in assay [2], in assay [4] and in assay [5] was 0.1 to 100 nM each time. The IC50 in assay [3] was 0.1 to 100 nM.

`C=CC(=O)Nc1ccc2c(c1)c(C)cn2-c1nc(Nc2cn(C(F)F)nc2C)ncc1F` [Example 149, N-[1-[2-[[1-(difluoromethyl)-3-methyl-pyrazol-4-yl]amino]-5-fluoro-pyrimidin-4-yl]-3-methyl-indol-5-yl]prop-2-enamide]: the Kd in assay [1] is 0.1 to 100 nM; in assay [2], 0.1 to 100 nM; in assay [4], 100 to 250 nM; in assay [5] it was 0.1 to 100 nM. Also, in assay [3], the IC50 fell in the range of 0.1 to 100 nM.

With `C=CC(=O)Nc1ccc2c(c1)c(C)cn2-c1nc(Nc2cnc(C)nc2C)ncc1F` [Example 150, N-[1-[2-[(2,4-dimethylpyrimidin-5-yl)amino]-5-fluoro-pyrimidin-4-yl]-3-methyl-indol-5-yl]prop-2-enamide], the Kd was 0.1 to 100 nM in assay [1], 100 to 250 nM in assay [2], 250 to 1000 nM in assay [4] and 0.1 to 100 nM in assay [5]. For the same compound, the IC50 in assay [3] is 0.1 to 100 nM.

For the compound `C=CC(=O)Nc1ccc2c(c1)c(C)cn2-c1nc(Nc2cccnc2C)ncc1F` [Example 153, N-[1-[5-fluoro-2-[(2-methyl-3-pyridyl)amino]pyrimidin-4-yl]-3-methyl-indol-5-yl]prop-2-enamide], the Kd in assay [1] is 100 to 250 nM; in assay [2], 0.1 to 100 nM; in assay [4], 250 to 1000 nM; in assay [5], 0.1 to 100 nM. In addition, the IC50 in assay [3] lay within 0.1 to 100 nM.

As for `C=CC(=O)Nc1ccc2c(-c3nc(Nc4cn(C)nc4C)ncc3F)cn(C)c2c1` [Example 154, N-[3-[2-[(1,3-dimethylpyrazol-4-yl)amino]-5-fluoro-pyrimidin-4-yl]-1-methyl-indol-6-yl]prop-2-enamide], the Kd was 0.1 to 100 nM in assay [1], 0.1 to 100 nM in assay [2], 250 to 1000 nM in assay [4] and 0.1 to 100 nM in assay [5]. The IC50 in assay [3] lay in the range of 0.1 to 100 nM.

For the compound `C=CC(=O)Nc1ccc2c(c1)c(C)cn2-c1nc(Nc2cn(CC)nc2C)ncc1F` [Example 156, N-[1-[2-[(1-ethyl-3-methyl-pyrazol-4-yl)amino]-5-fluoro-pyrimidin-4-yl]-3-methyl-indol-5-yl]prop-2-enamide], the Kd in assay [1], in assay [2], in assay [4] and in assay [5] was 0.1 to 100 nM throughout. In addition, the IC50 in assay [3] lay in the range of 0.1 to 100 nM.

For the compound `C=CC(=O)Nc1ccc2c(c1)c(C)cn2-c1nc(Nc2cnn(CC(C)O)c2)ncc1F` (stereo not drawn) [Example 158, N-[1-[5-fluoro-2-[[1-(2-hydroxypropyl)pyrazol-4-yl]amino]pyrimidin-4-yl]-3-methyl-indol-5-yl]prop-2-enamide], the Kd in assay [1], in assay [2], in assay [4] and in assay [5] was 0.1 to 100 nM in each case. The IC50 in assay [3] was in the range of 0.1 to 100 nM.

For the compound `C=CC(=O)Nc1ccc2c(c1)c(C)cn2-c1nc(Nc2cn(CC(F)F)nc2C)ncc1F` [Example 164, N-[1-[2-[[1-(2,2-difluoroethyl)-3-methyl-pyrazol-4-yl]amino]-5-fluoro-pyrimidin-4-yl]-3-methyl-indol-5-yl]prop-2-enamide], the Kd in assay [1], in assay [2], in assay [4] and in assay [5] was 0.1 to 100 nM each time. The IC50 in assay [3] was 0.1 to 100 nM.

`C=CC(=O)Nc1ccc2c(c1)c(C)cn2-c1nc(Nc2cn(CC(F)(F)F)nc2C)ncc1F` [Example 165, N-[1-[5-fluoro-2-[[3-methyl-1-(2,2,2-trifluoroethyl)pyrazol-4-yl]amino]pyrimidin-4-yl]-3-methyl-indol-5-yl]prop-2-enamide]: the Kd in assay [1], in assay [2], in assay [4] and in assay [5] was 0.1 to 100 nM each time. The IC50 in assay [3] is 0.1 to 100 nM.

With `C=CC(=O)Nc1ccc2c(c1)c(C)cn2-c1nc(Nc2cnn(CC3(O)CC3)c2)ncc1F` [Example 175, N-[1-[5-fluoro-2-[[1-[(1-hydroxycyclopropyl)methyl]pyrazol-4-yl]amino]pyrimidin-4-yl]-3-methyl-indol-5-yl]prop-2-enamide], the Kd in assay [1], in assay [2], in assay [4] and in assay [5] was 0.1 to 100 nM throughout. For the same compound, the IC50 in assay [3] was 0.1 to 100 nM.

For `C=CC(=O)Nc1ccc2c(c1)c(C)cn2-c1nc(Nc2cn(CCO)nc2C)ncc1F` [Example 176, N-[1-[5-fluoro-2-[[1-(2-hydroxyethyl)-3-methyl-pyrazol-4-yl]amino]pyrimidin-4-yl]-3-methyl-indol-5-yl]prop-2-enamide], the Kd in assay [1], in assay [2], in assay [4] and in assay [5] was 0.1 to 100 nM each time. Also, the IC50 in assay [3] is 0.1 to 100 nM.

For the compound `C=CC(=O)Nc1ccc2c(-c3ccnc(Nc4cnn(C5CC5)c4)n3)cn(C)c2c1` [Example 178, N-[3-[2-[(1-cyclopropylpyrazol-4-yl)amino]pyrimidin-4-yl]-1-methyl-indol-6-yl]prop-2-enamide], the Kd in assay [1], in assay [2], in assay [4] and in assay [5] was 0.1 to 100 nM throughout. Besides, the IC50 in assay [3] lay within 0.1 to 100 nM.

On to `Cc1nn(C)cc1Nc1ncc(Cl)c(-n2cc(C)c3cc(NC(=O)/C=C/CN(C)C)cnc32)n1` [Example 180, (E)-N-[1-[5-chloro-2-[(1,3-dimethylpyrazol-4-yl)amino]pyrimidin-4-yl]-3-methyl-pyrrolo[2,3-b]pyridin-5-yl]-4-(dimethylamino)but-2-enamide], for which the Kd in assay [1] was in the range of 0.1 to 100 nM; in assay [2], 0.1 to 100 nM; in assay [4], 100 to 250 nM; in assay [5] it was 0.1 to 100 nM. For the same compound, the IC50 in assay [3] lay within 0.1 to 100 nM.

As to `C=CC(=O)Nc1ccc2c(c1)c(C)cn2-c1nc(Nc2cn(CC(C)(C)O)nc2C)ncc1F` [Example 182, N-[1-[5-fluoro-2-[[1-(2-hydroxy-2-methyl-propyl)-3-methyl-pyrazol-4-yl]amino]pyrimidin-4-yl]-3-methyl-indol-5-yl]prop-2-enamide], the Kd in assay [1], in assay [2], in assay [4] and in assay [5] was 0.1 to 100 nM throughout. Further, the 50% inhibitory concentration (IC50) in assay [3] was 0.1 to 100 nM.
